Test in all cases: NCI tumour cell line growth inhibition, 48 h
The subject of experiment [1] is DLD-1 colon.
For experiment [2], the system named is SN12K1 renal.
Experiment [3] concerns P388/ADR leukemia.
Experiment [4] relates to HOP-18 NSCLC.
Experiment [5] deals with MDA-N.

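Grown in 96-well plates, cells were treated for 48 hours with each compound at five concentrations. Insufficient inhibition: endpoint recorded as highest concentration tested. The concentration for full growth arrest is given as TGI.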 A value given as a limit tells only on which side of the number the result lay.

In the case of `COc1cc2c(cc1OC)C(C(c1ccccc1)c1ccccc1)N(C)CC2` (centres undefined), the TGI was greater than 100 µM in experiment [1], greater than 65.6 µM in experiment [2], greater than 100 µM in experiment [3] and greater than 100 µM in experiment [4].
For `C[N+](C)([O-])CCOc1cc2c(c3ccccc13)-c1ccccc1C2=O`, the TGI was greater than 100 µM in experiment [1], 37.8 µM in experiment [2], greater than 45.2 µM in experiment [3] and greater than 100 µM in experiment [4].
`O=c1oc2cc(O)ccc2c(O)c1C(c1ccccc1)c1c(O)c2ccc(O)cc2oc1=O` registered a TGI in experiment [5] greater than 100 µM.
